Data from ChEMBL document CHEMBL1201862, “PubChem BioAssay data set” (2004).
Several values for one entry are separate records, joined by “and”; a condition that tells them apart may be missing. Equal values may be shown once.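 Assay format: 96-well plates, 48-hour exposure. GI50 is the concentration that inhibits growth by half.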 Activity calls are given as the source filed them. Cut-off read from the data, not from the text of the source: active = GI50 up to about 1.1 µM and inactive = higher.

Legend:
Test in all cases: NCI anticancer screen, dose series, 48 h
K562 = test system: K562
NCI-H522 = test system: NCI-H522
786-0 = test system: 786-0
RPMI-8226 = test system: RPMI-8226
SK-MEL-28 = test system: SK-MEL-28
EKVX = test system: EKVX
OVCAR-5 = test system: OVCAR-5
U-251 = test system: U-251
CCRF-CEM = test system: CCRF-CEM
SK-MEL-5 = test system: SK-MEL-5
OVCAR-4 = test system: OVCAR-4
HCC 2998 = test system: HCC 2998
UACC-257 = test system: UACC-257
HT-29 = test system: HT-29
SR = test system: SR
IGROV-1 = test system: IGROV-1
MOLT-4 = test system: MOLT-4
SK-MEL-2 = test system: SK-MEL-2

Row | SMILES | GI50 (K562) | GI50 (NCI-H522) | GI50 (786-0) | GI50 (RPMI-8226) | GI50 (SK-MEL-28) | GI50 (EKVX) | GI50 (OVCAR-5) | GI50 (U-251) | GI50 (CCRF-CEM) | GI50 (SK-MEL-5) | GI50 (OVCAR-4) | GI50 (HCC 2998) | GI50 (UACC-257) | GI50 (HT-29) | GI50 (SR) | GI50 (IGROV-1) | GI50 (MOLT-4) | GI50 (SK-MEL-2)
1 | c1ccc(C2[C@@H]3CCCc4ccccc4C3=NN2c2ccccc2)cc1 (stereo partly specified) | 32.7 µM (inactive) | 35 µM (inactive) | > 100 µM (inactive) | 40.7 µM (inactive) | > 100 µM (inactive) | 46.8 µM (inactive) | > 100 µM (inactive) | > 100 µM (inactive) | 87.7 µM (inactive) | 18.8 µM (inactive) | 49.5 µM (inactive) | > 100 µM (inactive) | > 100 µM (inactive) | 61.7 µM (inactive) | 91.6 µM (inactive) | > 100 µM (inactive) | 48.6 µM (inactive) | –
2 | COC(=O)C12C3C4C1C1C2C3C41C(=O)OC(C)(C)C (stereo unspecified) | > 70.1 µM (inactive) | > 100 µM (inactive) | > 100 µM (inactive) | > 49.2 µM (inactive) | > 100 µM (inactive) | > 100 µM (inactive) | > 100 µM (inactive) | > 100 µM (inactive) | > 71.3 µM (inactive) | > 100 µM (inactive) | > 100 µM (inactive) | – | > 100 µM (inactive) | > 100 µM (inactive) | 19.2 µM (inactive) | > 100 µM (inactive) | > 100 µM (inactive) | > 100 µM (inactive)
3 | O/N=C/c1cc2c(cc1Br)OCO2 | > 100 µM (inactive) | > 100 µM (inactive) | > 100 µM (inactive) | > 100 µM (inactive) | – | > 100 µM (inactive) | > 100 µM (inactive) | > 100 µM (inactive) | > 100 µM (inactive) | > 100 µM (inactive) | > 100 µM (inactive) | > 100 µM (inactive) | > 100 µM (inactive) | > 100 µM (inactive) | > 100 µM (inactive) | > 100 µM (inactive) | > 100 µM (inactive) | > 100 µM (inactive)
4 | CSC1CC2C(CC1(C)O)C2(C)C (stereo unspecified) | – | – | > 100 µM (inactive) | > 100 µM (inactive) | > 100 µM (inactive) | – | > 100 µM (inactive) | > 100 µM (inactive) | – | > 100 µM (inactive) and 53.8 µM (inactive) | > 100 µM (inactive) | > 100 µM (inactive) | – | > 100 µM (inactive) | – | > 100 µM (inactive) | – | > 100 µM (inactive)
5 | Cc1nc2ccccc2c(=O)n1NC(=S)Nc1cccc(Cl)c1 | > 100 µM (inactive) | 33.7 µM (inactive) | > 100 µM (inactive) | > 100 µM (inactive) | > 100 µM (inactive) | – | > 100 µM (inactive) | > 100 µM (inactive) | > 100 µM (inactive) | > 100 µM (inactive) | > 100 µM (inactive) | – | > 100 µM (inactive) | > 100 µM (inactive) | 31.8 µM (inactive) | > 100 µM (inactive) | > 100 µM (inactive) | > 100 µM (inactive)
6 | COC(=O)C(C(=O)C(=O)Nc1cccc(O)c1)c1nc2ccc(Cl)cc2nc1O (stereo unspecified) | > 100 µM (inactive) | – | > 100 µM (inactive) | > 100 µM (inactive) | > 100 µM (inactive) | 48.9 µM (inactive) | > 100 µM (inactive) | > 100 µM (inactive) | > 100 µM (inactive) | > 100 µM (inactive) | > 100 µM (inactive) | > 100 µM (inactive) | > 100 µM (inactive) | > 100 µM (inactive) | – | > 100 µM (inactive) | > 100 µM (inactive) | > 100 µM (inactive)
7 | O=C(Nc1ccc(S(=O)(=O)N[C@@H](C(=O)O)c2ccccc2)cc1)c1ccc(F)cc1 | > 100 µM (inactive) | > 100 µM (inactive) | > 100 µM (inactive) | > 100 µM (inactive) | > 100 µM (inactive) | > 100 µM (inactive) | > 100 µM (inactive) | > 100 µM (inactive) | > 100 µM (inactive) | > 100 µM (inactive) | > 100 µM (inactive) | > 100 µM (inactive) | > 100 µM (inactive) | > 100 µM (inactive) | – | > 100 µM (inactive) | > 100 µM (inactive) | > 100 µM (inactive)
8 | Cc1cccc(C)c1NC(=O)C(=O)Cc1nc2ccccc2s1 | > 100 µM (inactive) | > 100 µM (inactive) | > 100 µM (inactive) | > 100 µM (inactive) | > 100 µM (inactive) | > 100 µM (inactive) | > 100 µM (inactive) | > 100 µM (inactive) | > 100 µM (inactive) | > 100 µM (inactive) | > 100 µM (inactive) | > 100 µM (inactive) | > 100 µM (inactive) | > 100 µM (inactive) | – | > 100 µM (inactive) | – | > 100 µM (inactive)
9 | C[C@]12CCC(=O)C=C1CC[C@@H]1C2CC[C@@]2(C)C1CC[C@@H]2OC(=O)C12OC1CCC2=O (stereo partly specified) | 24.4 µM (inactive) | 10.7 µM (inactive) | 16.5 µM (inactive) | 20.9 µM (inactive) | 17.4 µM (inactive) | 15.5 µM (inactive) | 17.9 µM (inactive) | 15.1 µM (inactive) | 12.2 µM (inactive) | 16.2 µM (inactive) | 21.6 µM (inactive) | 20.3 µM (inactive) | 18 µM (inactive) | 18.9 µM (inactive) | 17.1 µM (inactive) | 10.8 µM (inactive) | 10.1 µM (inactive) | 15.2 µM (inactive)
10 | O=S(=O)(O)C1=C2Sc3ccccc3N=C2c2ccccc2C1 | 10.5 µM (inactive) | 16.7 µM (inactive) | 17.5 µM (inactive) | 7.48 µM (inactive) | 17.3 µM (inactive) | 13.8 µM (inactive) | 20.2 µM (inactive) | 12.5 µM (inactive) | 3.43 µM (inactive) | 13.2 µM (inactive) | 16.8 µM (inactive) | 12.2 µM (inactive) | 17.1 µM (inactive) | 20.3 µM (inactive) | 3.14 µM (inactive) | 14.3 µM (inactive) | 4.88 µM (inactive) | 14.6 µM (inactive)
11 | CC1=N/C(=C\c2c(O)ccc3ccccc23)C(=O)O1 | > 100 µM (inactive) | > 100 µM (inactive) | > 100 µM (inactive) | > 100 µM (inactive) | > 100 µM (inactive) | > 100 µM (inactive) | > 100 µM (inactive) | > 100 µM (inactive) | > 100 µM (inactive) | > 100 µM (inactive) | > 100 µM (inactive) | > 100 µM (inactive) | > 100 µM (inactive) | > 100 µM (inactive) | – | > 100 µM (inactive) | > 100 µM (inactive) | > 100 µM (inactive)
12 | CC(c1ccccc1)N1CC(C)(c2ccccc2)N(O)C(c2ccccc2)C1C (stereo unspecified) | 7.28 µM (inactive) | 6.4 µM (inactive) | 5.92 µM (inactive) | 3.75 µM (inactive) | 4.08 µM (inactive) | 13.5 µM (inactive) | 16.9 µM (inactive) | 13.1 µM (inactive) | 5.66 µM (inactive) | 7.82 µM (inactive) | – | 11.2 µM (inactive) | 13.5 µM (inactive) | 23.4 µM (inactive) | – | 7.45 µM (inactive) | 3.47 µM (inactive) | 5.42 µM (inactive)
13 | COc1cc([C@@H]2c3cc4c(cc3[C@@H](NC(=O)c3cccc([N+](=O)[O-])c3)C3COC(=O)[C@@H]32)OCO4)cc(OC)c1O (stereo partly specified) | 2.2 µM (inactive) | – | 0.202 µM (active) | 0.452 µM (active) | 3.27 µM (inactive) | 1.25 µM (inactive) | 2.23 µM (inactive) | 0.166 µM (active) | 0.0376 µM (active) | 0.452 µM (active) | 10.5 µM (inactive) | 0.608 µM (active) | 6.18 µM (inactive) | 1.7 µM (inactive) | – | 3.85 µM (inactive) | 0.0145 µM (active) | 2.77 µM (inactive)
14 | CN1CCCC2[C@@H]3CCC4=C(O)C(=O)CC[C@]4(C)C3CC[C@@]21C (stereo partly specified) | > 100 µM (inactive) | > 100 µM (inactive) | > 100 µM (inactive) | > 100 µM (inactive) | > 100 µM (inactive) | > 100 µM (inactive) | > 100 µM (inactive) | > 100 µM (inactive) | > 100 µM (inactive) | > 100 µM (inactive) | > 100 µM (inactive) | – | > 100 µM (inactive) | > 100 µM (inactive) | – | > 100 µM (inactive) | > 100 µM (inactive) | 1.4 µM (inactive)
15 | COc1ccc(C(=O)C(c2ccc(OC)cc2)C2OC(=O)C(Cl)=C2Cl)cc1 (stereo unspecified) | > 100 µM (inactive) | > 100 µM (inactive) | > 100 µM (inactive) | > 100 µM (inactive) | > 100 µM (inactive) | > 100 µM (inactive) | > 100 µM (inactive) | > 100 µM (inactive) | > 100 µM (inactive) | > 100 µM (inactive) | > 100 µM (inactive) | > 100 µM (inactive) | > 100 µM (inactive) | > 100 µM (inactive) | > 100 µM (inactive) | > 100 µM (inactive) | > 100 µM (inactive) | > 100 µM (inactive)
16 | Cc1ccccc1C(C#N)/C(=N/NC(N)=S)C(=O)Nc1c(C)cccc1C (stereo unspecified) | – | – | > 100 µM (inactive) | 9.12 µM (inactive) | > 100 µM (inactive) | > 100 µM (inactive) | > 100 µM (inactive) | > 100 µM (inactive) | > 100 µM (inactive) | 46.3 µM (inactive) | > 100 µM (inactive) | > 100 µM (inactive) | > 100 µM (inactive) | > 100 µM (inactive) | – | > 100 µM (inactive) | 88.1 µM (inactive) | > 100 µM (inactive)
